Structure (SMILES) | melting point
CCCCNC(=O)c1c[nH]c2ccc(COC)cc2c1=O [compound 34, N-Butyl 6-methoxymethyl-4-oxo-1,4-dihydro-quinoline-3-carboxamide] | 157 to 159 °C
CCOc1ccc2[nH]cc(C(=O)NCc3ccccc3)c(=O)c2c1 [compound 39, N-Benzyl 6-ethoxy-4-oxo-1,4-dihydro-quinoline-3-carboxamide] | 209 to 211 °C
CCOCCCNC(=O)c1c[nH]c2ccc(OCC)cc2c1=O [compound 42, N-[(3-Ethoxy)propyl] 6-ethoxy-4-oxo-1,4-dihydro-quinoline-3-carboxamide] | 179 to 181 °C
CCOc1ccc2[nH]cc(C(=O)NCC3CCCO3)c(=O)c2c1 (centres unmarked) [compound 44, N-[(2-Tetrahydrofuranyl)methyl] 6-ethoxy-4-oxo-1,4-dihydro-quinoline-3-carboxamide] | 181 to 182 °C
CCOc1ccc2[nH]cc(C(=O)NCc3ccc4c(c3)OCO4)c(=O)c2c1 [compound 47, N-Piperonyl 6-ethoxy-4-oxo-1,4-dihydro-quinoline-3-carboxamide] | 226 to 228 °C
CCOc1ccc2[nH]cc(C(=O)NCc3cccc(F)c3)c(=O)c2c1 [compound 50, N-(3-Fluorobenzyl) 6-ethoxy-4-oxo-1,4-dihydro-quinoline-3-carboxamide] | 210 to 212 °C
CCOc1ccc2[nH]cc(C(=O)NCc3cccnc3)c(=O)c2c1 [compound 52, N-[(3-Pyridyl)methyl] 6-ethoxy-4-oxo-1,4-dihydro-quinoline-3-carboxamide] | 222 to 224 °C
CCCCCNC(=O)c1c[nH]c2ccc(OCC)cc2c1=O [compound 54, N-Pentyl 6-ethoxy-4-oxo-1,4-dihydro-quinoline-3-carboxamide] | 180 to 183 °C
CCCNC(=O)c1c[nH]c2ccc(OCC)cc2c1=O [compound 55, N-Propyl 6-ethoxy-4-oxo-1,4-dihydro-quinoline-3-carboxamide] | 219 to 221 °C
CCCCCCNC(=O)c1c[nH]c2ccc(OCC)cc2c1=O [compound 57, N-Hexyl 6-ethoxy-4-oxo-1,4-dihydro-quinoline-3-carboxamide] | 181 to 182 °C
CCOc1ccc2[nH]cc(C(=O)NC)c(=O)c2c1 [compound 58, N-Methyl 6-ethoxy-4-oxo-1,4-dihydro-quinoline-3-carboxamide] | 279 to 281 °C
CCOc1ccc2[nH]cc(C(=O)NCc3ccc(CN(Cc4ccccc4)Cc4ccccc4)cc3)c(=O)c2c1 [compound 82, N-[4-(Dibenzylaminomethyl)benzyl] 6-ethoxy-4-oxo-1,4-dihydro-quinoline-3-carboxamide] | 162 to 164 °C
CCOc1ccc2[nH]cc(C(=O)NCc3ccc(CNCCN4CCOCC4)cc3)c(=O)c2c1 [compound 83, N-{4-[[2-(4-Morpholinyl)ethyl]aminomethyl]benzyl} 6-ethoxy-4-oxo-1,4-dihydro-quinoline-3-carboxamide] | 123 to 127 °C
CCOc1ccc2[nH]cc(C(=O)NCc3ccc(CN(CC)Cc4ccccc4)cc3)c(=O)c2c1 [compound 97, N-{4-[(N-Benzyl-N-ethylamino)methyl]benzyl} 6-ethoxy-4-oxo-1,4-dihydroquinoline-3-carboxamide] | 129 to 132 °C
CCOc1ccc2[nH]cc(C(=O)NCc3ccc(CN(C)Cc4ccccc4)cc3)c(=O)c2c1 [compound 98, N-{4-[(N-Benzyl-N-methylamino)methyl]benzyl} 6-ethoxy-4-oxo-1,4-dihydroquinoline-3-carboxamide] | 129 to 131 °C
CCOc1ccc2[nH]cc(C(=O)NCc3ccc(CN4CCCC4)cc3)c(=O)c2c1 [compound 103, N-{4-[(1-Pyrrolidinyl)methyl]benzyl} 6-ethoxy-4-oxo-1,4-dihydroquinoline-3-carboxamide] | 168 to 171 °C
COCc1ccc2[nH]cc(C(=O)NCc3cccc(CN4CCOCC4)c3)c(=O)c2c1 [compound 105, N-{3-[(4-Morpholinyl)methyl]benzyl} 6-methoxymethyl-4-oxo-1,4-dihydroquinoline-3-carboxamide] | 151 to 153 °C
CCOc1ccc2[nH]cc(C(=O)NCc3cccc(CN(C)Cc4ccccc4)c3)c(=O)c2c1 [compound 108, N-{3-[(N-Benzyl-N-methylamino)methyl]benzyl}-6-ethoxy-4-oxo-1,4-dihydroquinoline-3-carboxamide] | 144 to 146 °C
CCOc1ccc2[nH]cc(C(=O)NCc3cccc(CN4CCOCC4)c3)c(=O)c2c1 [compound 117, N-[3-(4-Morpholinylmethyl)benzyl]-6-ethoxy-4-oxo-1,4-dihydroquinoline-3-carboxamide] | 173 to 177 °C
COc1ccc2[nH]cc(C(=O)NCc3cccc(CN(C)Cc4ccccc4)c3)c(=O)c2c1 [compound 130, N-[3-(N-Benzyl-N-methylaminomethyl)benzyl]-6-methoxy-4-oxo-1,4-dihydroquinoline-3-carboxamide] | 186 to 188 °C

The next lines start with the values.

melting point | Structure (SMILES)
223 to 224 °C | CCOc1ccc2[nH]cc(C(=O)NCc3cccs3)c(=O)c2c1 [compound 41, N-[(2-Thienyl)methyl] 6-ethoxy-4-oxo-1,4-dihydro-quinoline-3-carboxamide]
163 to 164 °C | CCOc1ccc2[nH]cc(C(=O)NCCCOC(C)C)c(=O)c2c1 [compound 43, N-[(3-Isopropoxy)propyl] 6-ethoxy-4-oxo-1,4-dihydro-quinoline-3-carboxamide]
180 to 183 °C | CCOc1ccc2[nH]cc(C(=O)NCCC(C)C)c(=O)c2c1 [compound 45, N-Isoamyl 6-ethoxy-4-oxo-1,4-dihydro-quinoline-3-carboxamide]
191 to 193 °C | CCOc1ccc2[nH]cc(C(=O)NC3CCCCC3)c(=O)c2c1 [compound 46, N-Cyclohexyl 6-ethoxy-4-oxo-1,4-dihydro-quinoline-3-carboxamide]
175 to 177 °C | CCOc1ccc2[nH]cc(C(=O)NCCCOC)c(=O)c2c1 [compound 48, N-[(3-Methoxy)propyl] 6-ethoxy-4-oxo-1,4-dihydro-quinoline-3-carboxamide]
237 to 238 °C | CCOc1ccc2[nH]cc(C(=O)NCc3ccccc3F)c(=O)c2c1 [compound 49, N-(2-Fluorobenzyl) 6-ethoxy-4-oxo-1,4-dihydro-quinoline-3-carboxamide]
221 to 222 °C | CCOc1ccc2[nH]cc(C(=O)NCc3ccccn3)c(=O)c2c1 [compound 51, N-[(2-Pyridyl)methyl] 6-ethoxy-4-oxo-1,4-dihydro-quinoline-3-carboxamide]
190 to 191 °C | CCCCNC(=O)c1c[nH]c2ccc(OCC)cc2c1=O [compound 53, N-Butyl 6-ethoxy-4-oxo-1,4-dihydro-quinoline-3-carboxamide]
214 to 216 °C | CCOc1ccc2[nH]cc(C(=O)NCC(C)C)c(=O)c2c1 [compound 56, N-[(2-Methyl)propyl] 6-ethoxy-4-oxo-1,4-dihydro-quinoline-3-carboxamide]
203 to 205 °C | CCOc1ccc2[nH]cc(C(=O)NCc3ccsc3)c(=O)c2c1 [compound 59, N-[(3-Thienyl)methyl] 6-ethoxy-4-oxo-1,4-dihydro-quinoline-3-carboxamide]
161 to 165 °C | CCOc1ccc2[nH]cc(C(=O)NCc3ccc(Cn4ccnc4)cc3)c(=O)c2c1 [compound 66, N-[4-[(1-Imidazolyl)methyl]benzyl} 6-ethoxy-4-oxo-1,4-dihydro-quinoline-3-carboxamide]
273 to 276 °C | O=C(NCc1ccc(F)cc1)c1c[nH]c2ccc(Cl)cc2c1=O [compound 73, N-4-Fluorobenzyl 6-chloro-4-oxo-1,4-dihydroquinoline-3-carboxamide]
137 to 139 °C | CCOc1ccc2[nH]cc(C(=O)NCc3ccc(CN(C)CCc4ccccc4)cc3)c(=O)c2c1 [compound 99, N-{4-[(N-Methyl-N-phenethylamino)methyl]benzyl} 6-ethoxy-4-oxo-1,4-dihydroquinoline-3-carboxamide]
172 to 174 °C | CCOc1ccc2[nH]cc(C(=O)NCc3ccc(CN4CCCCC4)cc3)c(=O)c2c1 [compound 102, N-{4-[(1-Piperidinyl)methyl]benzyl} 6-ethoxy-4-oxo-1,4-dihydroquinoline-3-carboxamide]
140 to 144 °C | Cc1ccc2[nH]cc(C(=O)NCc3cccc(CN4CCOCC4)c3)c(=O)c2c1 [compound 127, N-[3-(4-Morpholinylmethyl)benzyl]-6-methyl-4-oxo-1,4-dihydroquinoline-3-carboxamide]

— US6413956B1, “Substituted 4-oxo-quinoline-3-carboxamides” (Neurogen Corporation, priority 1999, dated 2002)
